Values quoted from earlier work in patent publication US20060177860A1, “Genetic markers in the HLA-DQBI gene associated with an adverse hematological response to drugs” (priority 2005, published 2006).

Conditions: as taught by U.S. Pat. No. 5,312,819

O=C1O[C@H]([C@@H](O)CO)C(O)=C1O [L-ascorbic acid]
effect of radical scavenger on formation of free radicals of clozapine: reduces the formation of free radicals of clozapine
